Results as given in patent publication US20040074621A1, “Method for reducing slime production and mixture making the same” (Yuen Foong Yu Paper MFG Co., Ltd., priority 2002, published 2004).

What was measured:
[1] = tested on: culture isolated from the slime; assay: The effect of the antagonistic and the dispersing agent on the formation of the deposit; type: cell-based; conditions: after 7 days
Procedure: Cultures which are isolated from the slime are cultivated in a NB cultivation liquid for 21-24 hours. Then, 1 mL culture liquids of the isolated cultures are centrifuged in 15000 rpm for 1 min and the supernatants thereof are removed. All the isolated cultures are re-suspended by adding 1 mL sterile water, and then each re-suspended culture is inoculated into a flask which already contains sterile white water 100 mL and 3 g LBKP pulp. Later, different dispersing agents are added into different flasks of each kind of culture to obtain different mixtures. The mixtures are cultivated in an incubate shaker at 40° C. 70 rpm. After being mixture cultivated for 3 hours, 3 mL antagonistic C5 (Streptomyces bikiniensis) which has been amounted to 10^7/mL after being cultivated for 24 hours is added thereinto to obtain another mixture. The mixture are cultivated in the incubate shaker again at 40° C., 70 rpm. After 7 days, the production of the deposit is recorded. The whole experiment is separated into six groups. […] There are four experimental group: 3: Only incubate the culture isolated from the slime without incubating the antagonistic C5; 4: Incubate both the culture isolated from the slime and the antagonistic C5; 5: Incubate the culture isolated from the slime and the dispersing agent; and 6: Incubate the culture isolated from the slime, the dispersing agent, and the antagonistic C5. The groups described above are double checked and all experiments are repeated at least once. Deposit % is calculated by the formula as follows: [formula]

[2] = tested on: culture isolated from the slime; assay: The track experiment of periodically adding the antagonistic; type: cell-based
Procedure: Cultures which are isolated from the slime are cultivated in a NB cultivation liquid for 21-24 hours. Then, 1 mL culture liquids of the isolated cultures are centrifuged in 15000 rpm for 1 min and the supernatants thereof are removed. All the isolated cultures are re-suspended by adding 1 mL sterile water, and then each re-suspended culture is inoculated into a flask which already contains sterile white water 100 mL and 3 g LBKP pulp. Later, different dispersing agents are added into different flasks of each kind of culture to obtain different mixtures. The mixtures are cultivated in an incubate shaker at 40° C. 70 rpm. After being mixture cultivated for 3 hours, 3 mL antagonistic C5 (Streptomyces bikiniensis) which has been amounted to 10^7/L after being cultivated for 24 hours is added thereinto to obtain another mixture. The mixture are cultivated in the incubate shaker again at 40° C. 70 rpm. […] Then, the final deposit amount after another 7 days (total 14 days) is also recorded. The whole experiment is separated into four groups. […] There are two experimental group: 3: Only incubate the culture isolated from the slime without incubating the antagonistic C5; and 4: Incubate both the culture isolated from the slime and the antagonistic C5. The groups described above are double checked and all experiments are repeated at least once. Deposit % is calculated by the formula as follows: [formula]

[3] = contrast group: only antagonistic C5, without the culture isolated from the slime
[4] = isolated culture in sterile white water 100 mL + 3 g LBKP pulp, 40° C. 70 rpm, culture isolated from slime alone = 100%

Substance	Deposit (%) of the slime [1, 3] [%]	Deposit (%) of the slime [1, 4] [%]	Deposit % (Day 7) [2, 3] [%]	Deposit % (Day 14) [2, 3] [%]	Deposit % (Day 14) ([2]; culture isolated from slime + antagonistic C5, antagonistic C5 re-added at Day 7) [%]	Deposit % (Day 14) ([2]; culture isolated from slime + antagonistic C5 added once, not re-added, culture alone = 100%) [%]	Deposit % (Day 7) ([2]; culture isolated from slime + antagonistic C5 added once, culture alone = 100%) [%]
Streptomyces bikiniensis [Antagonistic C5]	24.7	53.0	31.0	35.0	28	87	29
Di-alkyl sulfosuccinate [dispersing agent S100]	–	53	–	–	–	–	–
